Read-outs that look alike come from different tables or passages of the source.
Key:
[1] = clinical; conditions: for half-life: human, in vivo, iv
Description: (§1) The assays were performed in triplicate. […] For each determination, an identical volume of preimmune serum was assayed as a control for antibody binding. […] After an incubation period of 1 hr at 25° C., 100 μl of goat-antirabbit 1 gG antiserum was added to each tube with 50 μl of normal rabbit 1 gG as a carrier for the precipitation. The tubes were again incubated at 25° C. for 30 min. The precipitates were washed twice in Tris buffer and spun in a Sorvall table-top centrifuge at 2,000 rpm×10 min. After the supernatant was decanted, the precipitates were dissolved in 1 ml of 1% sodium dodecyl sulfate. Bound radioactivity was counted in the presence of 10 ml of Aquasol-2 (New England Nuclear) in a Packard Tricarb liquid scintillation counter with a counting efficiency of 40%.
(§2) The assays to determine the competitive binding of potentially cross-reactive drugs were performed on sera obtained from patients on long-term maintenance with single drugs; digoxin, imipramine and alphamethyldopa, respectively.
To further document the reproducibility of the assay, each serum sample from a single subject was assayed in replicate fashion at dilutions of 1:2, 1:3 and 1:4 in pooled human serum.

[2] = result in words, cited from earlier work
[3] = tested on: exercise heart rate (patients); assay: Cardiovascular stress testing of patients on oral propranolol, serum propranolol concentration vs. heart rate and blood pressure; assay type: in vivo, human
Description: The assays were performed in triplicate. […] The ^3 H-(-)-propranolol was obtained from New England Nuclear Corporation. […] The standard curve for the radioimmunoassay was derived from triplicate assay of pooled human serum containing varying amounts of added (±) propranolol HCl. For each determination, an identical volume of preimmune serum was assayed as a control for antibody binding. […] After an incubation period of 1 hr at 25° C., 100 μl of goat-antirabbit 1 gG antiserum was added to each tube with 50 μl of normal rabbit 1 gG as a carrier for the precipitation. The tubes were again incubated at 25° C. for 30 min. The precipitates were washed twice in Tris buffer and spun in a Sorvall table-top centrifuge at 2,000 rpm×10 min. After the supernatant was decanted, the precipitates were dissolved in 1 ml of 1% sodium dodecyl sulfate. Bound radioactivity was counted in the presence of 10 ml of Aquasol-2 (New England Nuclear) in a Packard Tricarb liquid scintillation counter with a counting efficiency of 40%.
All subjects were submitted to standard, graded exercise according to the Bruce protocol, and 36 of 54 patients attained at least Stage II of exertion (greater than 6 min of sustained exertion).

[4] = target: antibody (antiacebutolol amine immune serum); assay: Competitive binding inhibition of 3H-(-)-propranolol to anti-acebutolol amine antibody (radioimmunoassay); parameters: species or system rabbit; conditions: for competitive inhibition of 3H-propranolol binding to the antibody: sera containing the drug
Description: Acebutolol amine having the formula: [drawing 3] was covalently linked to lysozyme. 150 mg of acebutolol amine was dissolved in 1.0 N HCl and was cooled to 0° C. in a salt ice bath. To this solution was added 1 cc of 0.5 M NaNO2 also at 0° C. and the resultant mixture was allowed to stand at 0° C. for 10 min. A mixture of 200 mg crystalline lysozyme in 15% aqueous sodium carbonate at 0° C. was added to 2.0 cc of the above mixture. […] The resultant product was dialyzed against phosphate buffered saline and the purified conjugate was frozen in dry ice-acetone and stored at -20° C. The product then was thawed and centrifuged for 10 min at 3000 rpm. The supernatant was recovered and mixed with Tris buffer, pH 7 at a concentration of 30 mg/ml.
Albino rabbits were immunized with this conjugate at monthly intervals for four months. Each rabbit received intracutaneous toepad injections of 0.5 mg of protein emulsified in complete Freund's adjuvant.
as §1, §2

[5] = tested on: beta-adrenergic receptor; conditions: metabolite of propranolol, result in words, cited from earlier work

Compound: CC(C)NCC(O)COc1cccc2ccccc12 (racemic) [propranolol]
- half-life ([1]; range of serum half-life observed in subjects): 5 to 7.5 h
- half-life ([1]; serum half-life): ~7.5 h
- time the drug remains detectable in serum ([1]; single intravenous administration): six to twelve
- conversion by the liver to 4 OH-propranolol ([2]; oral administration): a significant fraction of the administered dose is converted by the liver to 4 OH-propranolol
- bio-availability [2]: markedly variable bio-availibility
- correlation between increases in blood pressure or heart rate and serum concentration ([3]; 54 patients, exercise, result in words): lack of correlation
- relationship of basal heart rate to plasma concentration, response to exercise, or administered dose ([3]; 54 patients, long-term oral propranolol, result in words): failed to show any significant relationship
- p of linear relationship between exercise response (percent of maximal predicted heart rate for age) and serum propranolol concentration ([3]; FIG. 3, linear regression analysis): < 0.0005
- average daily dose in adequately blocked patients ([3]; adequately blocked patients, oral): 2.45 ± 2.89 mg/kg/day
- p of difference in average daily dose, adequately vs. inadequately blocked patients ([3]; human, in vivo): < 0.001
- average daily dose in inadequately blocked patients ([3]; inadequately blocked patients, oral): 1.14±0.62
- patients who achieved an exercise response of <67% of predicted ([3]; serum level <250 ng/ml): 3/33
- patients with exercise response consistent with adequate beta-adrenergic blockade ([3]; serum level >250 ng/ml): 10/16
- correlation of serum propranolol and heart rate response to maximal exercise ([3]; study of 56 patients, result in words): highly significant

Compound: CC(C)NCC(O)COc1ccc(O)c2ccccc12 (stereo not drawn) [4-hydroxypropranolol]
- detectability of metabolite in serum [2]: detectable in serum only after the oral route of drug administration
- Kd ([4]; 3H-(-)-propranolol displacement from antibody, read-out: apparent KD (competitive binding inhibition)): 10 nM
- biological activity at the beta-adrenergic receptor [5]: equipotent beta adrenergic receptor antagonist
- biological activity at the beta-adrenergic receptor ([5]; listed as 4 OH-propranolol): retains full biological activity

Compound: NC[C@H](O)c1ccc(O)c(O)c1 [(-)-norepinephrine]
- competitive inhibition of 3H-propranolol binding to the antibody ([4]; result in words): failed to produce significant competitive inhibition

Compound: CC(=O)c1ccc(N)cc1OCC(O)CNC(C)C (stereo not drawn) [acebutolol amine]
- competitive binding inhibition curve compared with propranolol ([4]; FIG. 1, result in words): yields a curve analogous to the displacement binding observed with propranolol

Compound: C[C@](N)(Cc1ccc(O)c(O)c1)C(=O)O [alpha methyldopa]
- competitive inhibition of 3H-propranolol binding to the antibody ([4]; result in words): failed to produce significant competitive inhibition

Compound: C[C@H]1O[C@@H](O[C@H]2[C@@H](O)C[C@H](O[C@H]3[C@@H](O)C[C@H](O[C@H]4CC[C@@]5(C)[C@H](CC[C@@H]6[C@@H]5C[C@@H](O)[C@]5(C)[C@@H](C7=CC(=O)OC7)CC[C@]65O)C4)O[C@@H]3C)O[C@@H]2C)C[C@H](O)[C@@H]1O [digoxin]
- competitive inhibition of 3H-propranolol binding to the antibody ([4]; result in words): failed to produce significant competitive inhibition

Compound: NCCc1ccc(O)c(O)c1 [dopamine]
- competitive inhibition of 3H-propranolol binding to the antibody ([4]; result in words): failed to produce significant competitive inhibition

Compound: CN(C)CCCN1c2ccccc2CCc2ccccc21 [imipramine]
- competitive inhibition of 3H-propranolol binding to the antibody ([4]; result in words): failed to produce significant competitive inhibition

Reference: patent publication US4332787A, “Assay for beta-adrenergic antagonists and antibody therefor” (The Massachusetts General Hospital, priority 1980, dated 1982)
